What was measured:
NCI-H1299 = experiment: MTS Assay (cell growth inhibition), NCI-H1299; type: cell-based; settings: NCI-H1299 cells, 72 hours with test compound; concentration not given
Outline: (§1)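 First, seed 3000 cells per well in low-serum (1% FBS) DMEM and culture 18 h. Next, add compounds prepared at 300× in DMSO and diluted 1:40 in DMEM; incubate 72 h. Finally, add MTS/PMS for 4 h and measure absorbance at 492 nm.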

Tec kinase = target: T1, Tec kinase (Homo sapiens, UniProt P42680); experiment: Tec Kinase Activity Assay; type: biochemical; settings: 75 μM ATP, Pyk-2 substrate; compound concentration not given
T1 sequence (P42680 1-631): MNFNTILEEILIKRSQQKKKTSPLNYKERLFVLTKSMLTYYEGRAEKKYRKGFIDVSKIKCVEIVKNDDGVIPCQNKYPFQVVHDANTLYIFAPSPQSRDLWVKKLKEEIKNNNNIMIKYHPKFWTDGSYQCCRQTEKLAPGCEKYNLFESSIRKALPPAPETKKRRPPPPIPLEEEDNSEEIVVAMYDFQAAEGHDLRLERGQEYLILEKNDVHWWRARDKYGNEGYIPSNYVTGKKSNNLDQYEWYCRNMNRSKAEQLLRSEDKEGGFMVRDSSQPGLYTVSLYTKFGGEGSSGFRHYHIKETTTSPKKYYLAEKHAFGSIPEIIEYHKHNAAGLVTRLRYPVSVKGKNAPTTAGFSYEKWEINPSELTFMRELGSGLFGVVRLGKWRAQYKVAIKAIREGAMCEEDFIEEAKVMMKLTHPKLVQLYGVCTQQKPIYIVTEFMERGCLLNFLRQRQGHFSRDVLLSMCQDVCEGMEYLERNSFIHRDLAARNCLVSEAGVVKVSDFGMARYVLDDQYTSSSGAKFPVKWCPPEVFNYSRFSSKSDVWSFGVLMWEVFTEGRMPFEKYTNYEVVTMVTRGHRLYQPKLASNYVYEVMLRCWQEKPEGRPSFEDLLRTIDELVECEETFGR
Outline: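 TEC enzyme was preincubated 30 min with compound in buffer containing 75 μM ATP, 10 mM MgCl2, 2 mM DTT and 50 mM Tris-HCl. Pyk-2 substrate was then added for 2 h at room temperature. Phosphorylated product was captured on streptavidin plates and detected by anti-phosphotyrosine ELISA with an alkaline phosphatase/Attophos fluorescent read-out.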

Kato III = experiment: MTS Assay (cell growth inhibition), Kato III; type: cell-based; settings: Kato III cells, 72 hours with test compound; concentration not given
Outline: as §1

DLD-1 = experiment: MTS Assay (cell growth inhibition), DLD-1; type: cell-based; settings: DLD-1 cells, 72 hours with test compound; concentration not given
Outline: as §1

MDA-MB 231 = experiment: MTS Assay (cell growth inhibition), MDA-MB 231; type: cell-based; settings: MDA-MB 231 cells, 72 hours with test compound; concentration not given
Outline: as §1

PC-3 = experiment: MTS Assay (cell growth inhibition), PC-3; type: cell-based; settings: PC-3 cells, 72 hours with test compound; concentration not given
Outline: as §1

PACA-2 = experiment: MTS Assay (cell growth inhibition), PACA-2; type: cell-based; settings: PACA-2 cells, 72 hours with test compound; concentration not given
Outline: as §1

Compound: COc1ccc(C2c3[nH]c4ccccc4c3CCN2c2ncnc3[nH]ncc23)cc1 (stereo not drawn) [Compound 31, 1-(4-methoxyphenyl)-2-(1H-pyrazolo[3,4-d]pyrimidin-4-yl)-2,3,4,9-tetrahydro-1H-beta-carboline]
- MTS cell kill data (% inhibition) NCI-H1299 (NCI-H1299): B (B = 50-79% inhibition)
- Biochemical IC50 (% inhibition) Tec (Tec kinase): B (B = 50-79% inhibition)
- MTS cell kill data (% inhibition) Kato III (Kato III): B (B = 50-79% inhibition)
- MTS cell kill data (% inhibition) DLD-1 (DLD-1): B (B = 50-79% inhibition)
- MTS cell kill data (% inhibition) MDA-MB 231 (MDA-MB 231): B (B = 50-79% inhibition)
- MTS cell kill data (% inhibition) PC-3 (PC-3): C (C = <50% inhibition)
- MTS cell kill data (% inhibition) PACA-2 (PACA-2): B (B = 50-79% inhibition)

From patent US8497276B2, “Substituted indolo-piperidine compounds” (ArQule, Inc., priority 2009, dated 2013)
